Test results reported in the NIST ThermoML archive (doi:10.1016/j.tca.2009.10.001).

Assay: xn = mol fraction of the nth substance listed
Details: 101 kPa, Liquid; for viscosity: Capillary tube (Ostwald / Ubbelohde) method; for speed of sound: Linear variable-path acoustic interferometer; for mass density: Pycnometric method

CC#N [acetonitrile] + Cc1ccccc1
Details	mass density, 298.15 K [kg/m3]	mass density, 303.15 K [kg/m3]	mass density, 308.15 K [kg/m3]	speed of sound, 298.15 K [m/s]	speed of sound, 303.15 K [m/s]	speed of sound, 308.15 K [m/s]	viscosity, 298.15 K [mPa·s]	viscosity, 303.15 K [mPa·s]	viscosity, 308.15 K [mPa·s]
x2 = 0	775.3	769.9	764.7	1271.3	1251.9	1231.7	0.3696	0.3554	0.3414
x2 = 0.0506	784.6	779	773.6	1273.8	1253.9	1233.4	0.3809	0.3653	0.3503
x2 = 0.1082	794.1	788.4	782.9	1276.5	1256.3	1235.5	0.394	0.3772	0.3609
x2 = 0.1704	803.3	797.5	792	1279.3	1259	1238	0.408	0.39	0.3729
x2 = 0.2421	812.6	806.6	801.4	1282.4	1261.8	1240.9	0.4241	0.4045	0.3864
x2 = 0.3228	821.8	815.7	810.5	1285.7	1265	1244.3	0.4423	0.4211	0.4017
x2 = 0.4163	830.7	824.7	819.7	1289.2	1268.2	1247.8	0.4625	0.44	0.4193
x2 = 0.5288	839.6	833.8	828.7	1292	1270.9	1250.7	0.486	0.4614	0.4389
x2 = 0.6577	847.5	841.9	836.9	1294.5	1273.6	1253.5	0.5098	0.4834	0.4591
x2 = 0.8089	854.6	849.3	844.6	1296.7	1275.9	1256.3	0.5353	0.5069	0.4817

CCCC#N [butanenitrile] + Cc1ccccc1
Details	mass density, 298.15 K [kg/m3]	mass density, 303.15 K [kg/m3]	mass density, 308.15 K [kg/m3]	speed of sound, 298.15 K [m/s]	speed of sound, 303.15 K [m/s]	speed of sound, 308.15 K [m/s]	viscosity, 298.15 K [mPa·s]	viscosity, 303.15 K [mPa·s]	viscosity, 308.15 K [mPa·s]
x2 = 0	784.7	780.3	775.9	1271.4	1252.2	1233.9	0.5463	0.5255	0.5049
x2 = 0.082	792.7	788.1	783.6	1276.3	1256.5	1237.9	0.5484	0.5265	0.5053
x2 = 0.1673	800.8	796.1	791.5	1280.6	1260.4	1241.7	0.5504	0.5276	0.5058
x2 = 0.2537	808.6	803.8	799.2	1284.9	1264.5	1245.4	0.5522	0.5287	0.5064
x2 = 0.3488	816.8	812	807.4	1289.2	1268.6	1249.3	0.5541	0.5299	0.5069
x2 = 0.4436	824.5	819.7	815.1	1292.6	1272.2	1252.5	0.5559	0.5309	0.5074
x2 = 0.5435	832.2	827.3	822.8	1294.9	1274.6	1254.7	0.5576	0.5317	0.5079
x2 = 0.651	839.8	834.9	830.4	1296.7	1276.5	1256.5	0.5592	0.5324	0.5082
x2 = 0.759	846.9	841.9	837.4	1298	1277.4	1257.8	0.5607	0.5329	0.5084
x2 = 0.8771	854.1	849.1	844.6	1298.7	1278.3	1259	0.5622	0.5337	0.5088

CCC#N [propanenitrile] + Cc1ccccc1
Details	mass density, 298.15 K [kg/m3]	mass density, 303.15 K [kg/m3]	mass density, 308.15 K [kg/m3]	speed of sound, 298.15 K [m/s]	speed of sound, 303.15 K [m/s]	speed of sound, 308.15 K [m/s]	viscosity, 298.15 K [mPa·s]	viscosity, 303.15 K [mPa·s]	viscosity, 308.15 K [mPa·s]
x2 = 0	775.4	769.9	765.2	1252.4	1232.7	1213.7	0.4107	0.3991	0.3822
x2 = 0.0668	784.4	778.8	773.9	1257.2	1237	1217.6	0.4222	0.4087	0.3907
x2 = 0.1397	793.6	787.9	783	1262.2	1241.7	1222	0.4346	0.4194	0.4004
x2 = 0.2164	802.6	796.8	791.9	1267.3	1246.5	1226.7	0.4476	0.4306	0.4106
x2 = 0.3011	811.7	806	801.1	1272.9	1252	1232	0.4617	0.4432	0.422
x2 = 0.3905	820.5	814.9	810.1	1278.2	1257.1	1237.1	0.4765	0.4561	0.4341
x2 = 0.4917	829.4	823.9	819.1	1283	1262.1	1242.1	0.4927	0.4702	0.4475
x2 = 0.5989	837.7	832.3	827.6	1287.1	1266.2	1246.3	0.5082	0.4842	0.4606
x2 = 0.7174	845.7	840.5	835.8	1291.2	1270.4	1250.5	0.5247	0.4989	0.4748
x2 = 0.854	853.7	848.6	844	1295.2	1274.5	1255.2	0.5434	0.5158	0.4911
